Experimental data as given in ChEMBL document CHEMBL3046544, “Inhibitory Activity of N-Substituted-2-piperidones with a 1, 4-Benzodioxan Ring on Germination of Barnyardgrass” (J Pestic Sci, 2001).

How the values were obtained:
Format in all cases: functional
Settings in all cases: 120 h
Echinochloa esculenta [1] = experiment: Herbicidal activity against Echinochloa esculenta assessed as inhibition of seed germination at 1 nM after 5 days relative to control
Echinochloa esculenta [2] = experiment: Herbicidal activity against Echinochloa esculenta assessed as inhibition of seed germination at 100 nM after 5 days relative to control
Echinochloa esculenta [3] = experiment: Herbicidal activity against Echinochloa esculenta assessed as inhibition of seed germination at 10 nM after 5 days relative to control
Echinochloa esculenta [4] = experiment: Herbicidal activity against Echinochloa esculenta assessed as inhibition of seed germination at 1000 nM after 5 days relative to control

Structure (SMILES)	inhibition at 0.001 µM (Echinochloa esculenta [1]) [%]	inhibition at 0.1 µM (Echinochloa esculenta [2]) [%]	inhibition at 0.01 µM (Echinochloa esculenta [3]) [%]	inhibition at 1 µM (Echinochloa esculenta [4]) [%]
CCCCCCC(O)C1CCCN(Cc2ccccc2)C1=O (stereo not drawn)	< 49	50	< 49	> 90
O=C1C(C(O)c2cccc(C(F)(F)F)c2)CCCN1Cc1ccccc1 (stereo not drawn)	< 49	50	< 49	50
O=C1C(C(O)c2ccc3c(c2)OCCO3)CCN1C/C=C/c1ccccc1 (mixture of isomers)	< 49	< 49	< 49	> 90
O=C1C(C(O)c2ccc3c(c2)OCCO3)CCCCN1C/C=C/c1ccccc1 (mixture of isomers)	< 49	< 49	< 49	> 90
O=C1C(C(O)c2ccc3c(c2)OCCO3)Cc2ccccc2N1C/C=C/c1ccccc1 (mixture of isomers)	< 49	< 49	< 49	< 49
COc1c(C(O)C2CCCN(Cc3ccccc3)C2=O)ccc2c1OCCO2 (mixture of isomers)	< 49	< 49	< 49	> 90
O=C1C(C(O)c2ccc3c(c2)OCC(COCc2ccccc2)O3)CCCN1Cc1ccccc1 (mixture of isomers)	< 49	50	< 49	> 90
CCOCC1COc2cc(C(O)C3CCCN(Cc4ccccc4)C3=O)ccc2O1 (mixture of isomers)	< 49	50	< 49	50
COCC1COc2cc(C(O)C3CCCN(Cc4ccccc4)C3=O)ccc2O1 (mixture of isomers)	< 49	> 90	< 49	> 90
O=C1C(C(O)c2ccc3c(c2)OCC(c2ccccc2)O3)CCCN1Cc1ccccc1 (mixture of isomers)	< 49	< 49	< 49	< 49
O=C1C(C(O)c2ccnc3ccccc23)CCCN1Cc1ccccc1 (mixture of isomers)	< 49	< 49	< 49	> 90
O=C1C(C(O)c2cnc3ccccc3c2)CCCN1Cc1ccccc1 (mixture of isomers)	< 49	< 49	< 49	< 49
O=C1C(C(O)c2ccc3ccccc3n2)CCCN1Cc1ccccc1 (mixture of isomers)	< 49	< 49	< 49	> 90
O=C1C(C(O)c2ccncc2)CCCN1Cc1ccccc1 (mixture of isomers)	< 49	< 49	< 49	< 49
O=C1C(C(O)c2cccnc2)CCCN1Cc1ccccc1 (mixture of isomers)	< 49	< 49	< 49	50
O=C1C(C(O)c2ccccn2)CCCN1Cc1ccccc1 (mixture of isomers)	< 49	< 49	< 49	< 49
O=C1C(C(O)c2ccc3ccccc3c2)CCCN1Cc1ccccc1 (mixture of isomers)	< 49	< 49	< 49	< 49
O=C1C(C(O)c2cccc(Cl)c2)CCCN1Cc1ccccc1 (mixture of isomers)	< 49	< 49	< 49	> 90
O=C1C(C(O)c2ccc(Cl)cc2)CCCN1Cc1ccccc1 (mixture of isomers)	< 49	50	< 49	> 90

Structure (SMILES)	inhibition at 0.001 µM (Echinochloa esculenta [1]) [%]	inhibition at 0.1 µM (Echinochloa esculenta [2]) [%]	inhibition at 0.01 µM (Echinochloa esculenta [3]) [%]	inhibition at 1 µM (Echinochloa esculenta [4]) [%]
O=C1C(C(O)c2ccccc2[N+](=O)[O-])CCCN1Cc1ccccc1 (mixture of isomers)	< 49	< 49	< 49	50
O=C1C(C(O)c2cccc([N+](=O)[O-])c2)CCCN1Cc1ccccc1 (mixture of isomers)	< 49	< 49	< 49	50
O=C1C(C(O)c2ccc([N+](=O)[O-])cc2)CCCN1Cc1ccccc1 (mixture of isomers)	< 49	< 49	< 49	50
O=C1C(C(O)c2ccccc2C(F)(F)F)CCCN1Cc1ccccc1 (mixture of isomers)	< 49	< 49	< 49	50
O=C1C(C(O)c2ccc(C(F)(F)F)cc2)CCCN1Cc1ccccc1 (mixture of isomers)	< 49	< 49	< 49	50
O=C1C(C(O)c2ccc3c(c2)OCO3)CCCN1Cc1ccccc1 (mixture of isomers)	< 49	< 49	< 49	< 49
O=C1C(C(O)c2cccc(O)c2)CCCN1Cc1ccccc1 (mixture of isomers)	< 49	< 49	< 49	50
O=C1C(C(O)c2ccc(O)cc2)CCCN1Cc1ccccc1 (mixture of isomers)	< 49	< 49	< 49	50
O=C1C(C(O)c2ccc(O)c(O)c2)CCCN1Cc1ccccc1 (mixture of isomers)	< 49	< 49	< 49	50
COc1ccc(C(O)C2CCCN(Cc3ccccc3)C2=O)c(OC)c1 (mixture of isomers)	< 49	< 49	< 49	< 49
COc1ccc(C(O)C2CCCN(Cc3ccccc3)C2=O)cc1OC (mixture of isomers)	< 49	50	< 49	> 90
O=C1C(C(O)c2cccc(Oc3ccccc3)c2)CCCN1Cc1ccccc1 (mixture of isomers)	< 49	< 49	< 49	50
O=C1C(C(O)c2ccc(Oc3ccccc3)cc2)CCCN1Cc1ccccc1 (mixture of isomers)	< 49	< 49	< 49	< 49
O=C1C(C(O)c2ccc(Cl)cc2Cl)CCCN1Cc1ccccc1 (mixture of isomers)	< 49	< 49	< 49	50
O=C1C(C(O)c2ccc(Cl)c(Cl)c2)CCCN1Cc1ccccc1 (mixture of isomers)	< 49	< 49	< 49	50
O=C1C(C(O)c2cccc3ccccc23)CCCN1Cc1ccccc1 (mixture of isomers)	< 49	< 49	< 49	< 49
COc1cc2c(cc1C(O)C1CCCN(Cc3ccccc3)C1=O)OCCO2 (mixture of isomers)	< 49	50	< 49	50
COc1cc(C(O)C2CCCN(Cc3ccccc3)C2=O)cc2c1OCCO2 (mixture of isomers)	< 49	< 49	< 49	50
